Source: patent US12648917B2 (University of Florida Research Foundation, Incorporated, priority 2017, dated 2026)
Entries after “also recorded” stand apart in the source; their conditions may differ. Each block holds one compound with its values, some of them ahead of it.

Tests used:
RAN protein translation = assay: RAN protein levels by protein blot in HEK293T cells transfected with repeat expansion constructs; type: cell-based; conditions: for RAN polyGP protein levels, dose dependence: HEK293T cells transiently transfected with G4C2 expansion constructs (FIG. 4)
Description: . […] Protein blots were run on protein lysates from HEK293T cells transfected with various repeat expansion constructs shown in FIG. 1A. In FIG. 1B, the lanes labeled KMQ, show: RAN poly-Ser-Flag, RAN poly-Ala-HA, ATG initiated polyGln-Myc. In FIG. 1B, the lanes labeled KMQ has a methionine encoding ATG immediately 5′ to the CAG repeat expansion and located within the polyGln reading frame. The lanes labeled KKQ indicate the KKQ vector contains a CAG expansion without an AUG initiation codon, and indicates: RAN polySer-Flag, RAN polyAla-HA, RAN polyGln-Myc. These constructs contain epitope tags that are incorporated into the C-terminal regions of the ATG-initiated poly-Gln and non-ATG initiated RAN proteins (poly-Gln, poly-Leu-Pro-Ala-Cys and poly-Gly-Pro) which are expressed across these repeat expansions. The lane labeled CCTG expresses the following RAN proteins: RAN polyLPAC-Flag, RAN polyLPAC-HA, RAN polyLPAC-Myc. The lane labeled G4C2 is designed to detect the following RAN proteins: RAN polyGP-Flag, RAN polyGR-HA, RAN polyGA-Myc. […].
(§1) HEK293T cells were cultured in DMEM medium supplemented with 10% fetal bovine serum and incubated at 37° C. in a humid atmosphere containing 5% CO2. DNA transfections were performed using Lipofectamine 2000 Reagent (Invitrogen) according to the manufacturer's instructions.
(§2) Transfected cells in each well of a six-well tissue-culture plate were rinsed with PBS and lysed in 300 μL RIPA buffer with protease inhibitor cocktail for 45 min on ice. DNA was sheared by passage through a 21-gauge needle. The cell lysates were centrifuged at 16,000×g for 15 min at 4° C., and the supernatant was collected. The protein concentration of the cell lysate was determined using the protein assay dye reagent (Bio-Rad). Twenty micrograms of protein were separated in a 4-12% NuPAGE Bis-Tris gel (Invitrogen) and transferred to a nitrocellulose membrane (Amersham). The membrane was blocked in 5% dry milk in PBS containing 0.05% Tween-20 (PBS-T) and probed with the anti-Flag (1:2000), anti-Myc (1:1000), anti-HA (1:1000), or rabbit polyclonal antibodies (1:1000) in blocking solution. After the membrane was incubated with anti-rabbit or anti-mouse HRP-conjugated secondary antibody (Amersham), bands were visualized by the ECL plus Western Blotting Detection System (Amersham).
. Transient transfections of expansion constructs treated with or without metformin were performed. […]. […] Protein blots were run on protein lysates from HEK293T cells transfected with various repeat expansion constructs shown in FIG. 5A. In FIG. 5B, the lanes labeled KMQ, show: RAN poly-Ser-Flag, RAN poly-Ala-HA, ATG initiated polyGln-Myc. In FIG. 5B the lanes labeled KMQ has a methionine encoding ATG immediately 5′ to the CAG repeat expansion and located within the polyGln reading frame. The lanes labeled KKQ indicate the KKQ vector contains a CAG expansion without an AUG initiation codon, and indicates: RAN polySer-Flag, RAN polyAla-HA, RAN polyGln-Myc. These constructs contain epitope tags that are incorporated into the C-terminal regions of the ATG-initiated poly-Gln and non-ATG initiated RAN proteins (poly-Gln, poly-Leu-Pro-Ala-Cys and poly-Gly-Pro) which are expressed across these repeat expansions. The lane labeled CCTG expresses the following RAN proteins: RAN polyLPAC-Flag, RAN polyLPAC-HA, RAN polyLPAC-Myc. The lane labeled G4C2 is designed to detect the following RAN proteins: RAN polyGP-Flag, RAN polyGR-HA, RAN polyGA-Myc. […].

PKR = target: T1, PKR (Homo sapiens, UniProt P19525); assay: p-PKR (T446 and T451) levels by protein blot in HEK293T cells transfected with repeat expansion constructs; type: cell-based; conditions: for G4C2 repeat-expansion induced p-PKR (T446 and T451) levels, dose dependence: cells transfected with a G4C2 repeat expansion construct (FIG. 4)
T1 construct: endogenous in cells; host or cells: HEK293T
T1 sequence (P19525 whole entry): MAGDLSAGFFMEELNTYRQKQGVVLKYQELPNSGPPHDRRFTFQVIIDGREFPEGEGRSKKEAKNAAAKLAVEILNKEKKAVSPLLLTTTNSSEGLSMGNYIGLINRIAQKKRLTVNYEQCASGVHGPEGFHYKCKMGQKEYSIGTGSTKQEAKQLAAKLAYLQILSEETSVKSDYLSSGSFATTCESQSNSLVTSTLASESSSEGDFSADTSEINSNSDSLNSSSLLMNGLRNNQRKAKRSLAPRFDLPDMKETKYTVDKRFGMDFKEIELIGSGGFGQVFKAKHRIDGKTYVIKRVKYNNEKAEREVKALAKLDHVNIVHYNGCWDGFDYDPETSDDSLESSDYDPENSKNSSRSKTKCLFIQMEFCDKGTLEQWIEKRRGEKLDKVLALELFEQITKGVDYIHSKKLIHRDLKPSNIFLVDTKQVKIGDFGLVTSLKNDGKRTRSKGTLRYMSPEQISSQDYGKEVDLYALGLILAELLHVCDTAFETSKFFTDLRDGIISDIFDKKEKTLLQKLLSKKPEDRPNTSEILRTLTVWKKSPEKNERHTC
Description: as §1, §2
[…]. Transient transfections of expansion constructs treated with or without metformin were performed. […].

[1] = tested on: glycine-proline (GP) RAN protein; assay: GP RAN protein levels in leukocyte lysates from peripheral blood of a C9ORF72 expansion-positive subject; type: in vivo; conditions: single human subject with C9ORF72 repeat expansion, 500 or 1000 mg/day Metformin Hydrochloride Extended Release Tablets, 10 to 30 days after treatment
Description: […]. […] […]. […] […]

GA aggregates = GA aggregates in retrosplenial cortex of C9-BAC mice; type: in vivo, mouse; conditions: for reduction in the number of GA aggregates compared to C9 controls: 5 mg/ml in drinking water
Description: (§3) In Group A animals, treatment began at 2 months of age, before the onset of overt behavioral or pathological phenotypes. In Group B, smaller cohorts of animals (n=8/group) were treated beginning at 6 months, an age at which behavioral phenotypes are evident. DigiGait analyses of Group A mice at 5 months identified eight DigiGait parameters that differed between untreated C9 and NT cohorts. […]. […] […].
Cancer Prev Res (Phila) 3, 1066-1076, doi: 10.1158/1940-6207. CAPR-10-0055 (2010)). In Group A animals, three months of treatment began at 2 months of age, before the onset of overt behavioral or pathological phenotypes. In Group B, smaller cohorts of animals were treated for four months beginning at 6 months, an age at which behavioral phenotypes are evident^12.

C9-BAC mice = assay: Open field analysis (center time) in C9-BAC mice; type: in vivo, mouse; conditions: Group A metformin-treated C9 mice compared to untreated C9 mice
Description: Open field analysis. Open field analysis was performed by testing mouse behavior during a 30 min session in a completely dark open chamber (17″×17″) (Med Associates). Approximately two hours before the start of analysis, mice were placed in the testing room to allow for acclimation to the room. Mice were then placed in the center of the darkened activity-monitoring chamber. The trace path and center time was recorded and analyzed with Activity Monitor (MED associates, Inc.) software.
as §3
DigiGait analyses of Group A mice at 5 months identified eight parameters that differed between untreated C9 and NT cohorts. […]. […]. […]

[2] = tested on: glial fibrillary acidic protein (GFAP); assay: IHC staining for GFAP (neuroinflammation, reactive gliosis) in C9-BAC mice; type: in vivo, mouse
[3] = metformin 5 mg/ml in the drinking water; previously shown, comparable to human doses of 20 mg/kg/day; cited from earlier work

SMILES: CN(C)C(=N)NC(=N)N [metformin]
- RAN protein levels of poly-Ala (RAN protein translation; HEK293T cells transfected with CAG repeat expansion constructs, treated with metformin, protein blot): reduced; also recorded: decreases
- RAN protein levels of poly-LPAC (all three reading frames) (RAN protein translation; HEK293T cells transfected with CCTG repeat expansion construct, treated with metformin, protein blot): reduced; also recorded: decreases
- RAN protein levels of poly-GP (RAN protein translation; HEK293T cells transfected with G4C2 (GGGGCC) repeat expansion construct, treated with metformin, protein blot): reduced; also recorded: decreases
- RAN protein levels / expression (RAN protein translation; HEK293T cells transiently transfected with CAG, CCTG, CAGG and G4C2 expansion constructs (FIG. 3A)): decreases RAN protein levels; also recorded: reduces RAN protein expression
- RAN polyGP protein levels, dose dependence (RAN protein translation): reduce GP RAN protein levels in a dose-dependent manner
- G4C2 repeat-expansion induced p-PKR (T446 and T451) levels, dose dependence (PKR): reduce levels of p-PKR
- p-PKR (T446 and T451) levels / PKR phosphorylation (PKR; cells transfected with repeat expansion constructs, with or without metformin (FIG. 3B, FIG. 6A)): decreases PKR phosphorylation; also recorded: reduces levels of p-PKR
- glycine-proline (GP) RAN protein levels compared to pretreatment levels [1]: Dose dependent reduction; also recorded: Dose-dependent reduction
- reduction in the number of GA aggregates compared to C9 controls (GA aggregates; Group A (treated from 2 months of age, 3 months), P=0.01): 38%
- reduction in the number of GA aggregates compared to C9 controls (GA aggregates; Group B (treated from 6 months of age), P=0.047): 37%
- GA aggregates compared to untreated C9 controls, in words (GA aggregates; metformin in drinking water, Group A and Group B): decreased numbers of GA aggregates; also recorded: reduction in GA aggregates
- open field center time (anxiety-like behavior) (C9-BAC mice): increased center time; also recorded: normalization or increased center time; also recorded: normalized
- GFAP staining / reactive gliosis compared to untreated C9 animals, in words ([2]; C9 metformin treated vs untreated C9 animals (Group A)): significantly reduced; also recorded: decreased levels of reactive gliosis
- reduction of GFAP staining compared to untreated C9 mice ([2]; Group A): 79%
- reduction of GFAP staining compared to untreated C9 mice ([2]; Group B): 74%
- plasma levels [3]: ~10 µM

- G4C2 repeat-expansion induced p-PKR (T446 and T451) levels, dose dependence (PKR): reduce levels of p-PKR
SMILES: CCCCNC(=N)NC(=N)N [buformin]
- RAN polyGP protein levels, dose dependence (RAN protein translation): reduce GP RAN protein levels in a dose-dependent manner

- G4C2 repeat-expansion induced p-PKR (T446 and T451) levels, dose dependence (PKR): reduce levels of p-PKR
SMILES: [H]/N=C(/N)N/C(=N/[H])NCCc1ccccc1 [phenformin]
- RAN polyGP protein levels, dose dependence (RAN protein translation): reduce GP RAN protein levels in a dose-dependent manner
